Experimental data from publication PMC8911181, “A Novel CDK4/6 and PARP Dual Inhibitor ZC-22 Effectively Suppresses Tumor Growth and Improves the Response to Cisplatin Treatment in Breast and Ovarian Cancer” (International Journal of Molecular Sciences, 2022).

System: breast and ovarian cancer cells
Assay: CCK-8 cell proliferation/viability at fixed concentration
Assay type: cell-based, human
Conditions: 48 or 72 h
Experimental: Cell viability assay was performed as described before. Briefly, 2500/well of breast or ovarian cancer cells were seeded into a 96-well plate; grown overnight; treated with indicated concentration of Olaparib, LY2835219, ZC22, LP-1, GC-24, or cisplatin alone or together for an indicated amount of time; and then incubated with Cell Counting kit-8 (CCK-8) substrate (Dojindo, Kumamoto, Kyushu Island, Japan) for 1–2 h at 37 °C. Cell viability was calculated by the absorbance at 450 nm measured by the GloMax Explorer (Promega, Madison, WI, USA). Cells without treatment were set as 100%, and medium control (no cells) was set as 0%.
Figure 2 ZC-22 suppresses proliferation of breast and ovarian cancer cells. (A) IC50 of ZC-22, Olaparib, and LY2835219 (Abemaciclib) in breast and ovarian cancer cells. […] Cell proliferation was analyzed by CCK-8 assays. […] Cell proliferation assay was analyzed by CCK-8 assays. […]
Figure 5 ZC-22 increases the sensitivity of breast and ovarian cancer cells to cisplatin. […] Representative pictures of EdU staining are shown in the left panels, and quantification of percentage of EdU-positive cells was presented in the bar graphs on the right, n = 3. […] (D) Representative pictures (left) and quantification of percentage (right) of γH2A.X-positive cells in MDA-MB-231 (top panels) and OVCAR5 (bottom panels) cells treated with DDP alone or together with OLA or ZC-22 for 24 h, n = 3. […]

Cc1nc2c(F)cc(-c3nc(Nc4ccc(N5CCN(C(=O)c6cc(Cc7n[nH]c(=O)c8ccccc78)ccc6F)CC5)cn4)ncc3F)cc2n1C(C)C [ZC-22, 4-(4-fluoro-3-(4-(6-((5-fluoro-4-(4-fluoro-1-isopropyl-2-methyl-1H-benzo[d]imidazole-6-yl)pyrimidin-2-yl)amino)pyridin-3-yl)piperazine-1-carbonyl)benzyl)phthalazin-1(2H)-one]
growth inhibition compared with Olaparib and Abemaciclib alone and combined (MDA-MB-231 2 μM, SUM-159, OVCAR5, SKOV3 0.5 μM): better anti-tumor efficacy than the Olaparib and Abemaciclib monotherapy, and the combination therapy
sensitization of cells to cisplatin (cell viability) (cisplatin 2.5 μM (SKOV3 5 μM) together with 2 μM or 0.5 μM compound): greatly sensitized breast and ovarian cancer cells to cisplatin
